From paper PMC11589570, “Critical assessment of LC3/GABARAP ligands used for degrader development and ligandability of LC3/GABARAP binding pockets” (Nature Communications, 2024) come the findings set out here.

Format in all cases: binding
Test [1] concerns the target T1, KIF11 (Homo sapiens, UniProt P52732).
T1 construct: endogenous in cells; host or cells: HEK293 / HEK293T (ATCC; CRL-11268) lysate
T1 sequence (P52732 1-1056): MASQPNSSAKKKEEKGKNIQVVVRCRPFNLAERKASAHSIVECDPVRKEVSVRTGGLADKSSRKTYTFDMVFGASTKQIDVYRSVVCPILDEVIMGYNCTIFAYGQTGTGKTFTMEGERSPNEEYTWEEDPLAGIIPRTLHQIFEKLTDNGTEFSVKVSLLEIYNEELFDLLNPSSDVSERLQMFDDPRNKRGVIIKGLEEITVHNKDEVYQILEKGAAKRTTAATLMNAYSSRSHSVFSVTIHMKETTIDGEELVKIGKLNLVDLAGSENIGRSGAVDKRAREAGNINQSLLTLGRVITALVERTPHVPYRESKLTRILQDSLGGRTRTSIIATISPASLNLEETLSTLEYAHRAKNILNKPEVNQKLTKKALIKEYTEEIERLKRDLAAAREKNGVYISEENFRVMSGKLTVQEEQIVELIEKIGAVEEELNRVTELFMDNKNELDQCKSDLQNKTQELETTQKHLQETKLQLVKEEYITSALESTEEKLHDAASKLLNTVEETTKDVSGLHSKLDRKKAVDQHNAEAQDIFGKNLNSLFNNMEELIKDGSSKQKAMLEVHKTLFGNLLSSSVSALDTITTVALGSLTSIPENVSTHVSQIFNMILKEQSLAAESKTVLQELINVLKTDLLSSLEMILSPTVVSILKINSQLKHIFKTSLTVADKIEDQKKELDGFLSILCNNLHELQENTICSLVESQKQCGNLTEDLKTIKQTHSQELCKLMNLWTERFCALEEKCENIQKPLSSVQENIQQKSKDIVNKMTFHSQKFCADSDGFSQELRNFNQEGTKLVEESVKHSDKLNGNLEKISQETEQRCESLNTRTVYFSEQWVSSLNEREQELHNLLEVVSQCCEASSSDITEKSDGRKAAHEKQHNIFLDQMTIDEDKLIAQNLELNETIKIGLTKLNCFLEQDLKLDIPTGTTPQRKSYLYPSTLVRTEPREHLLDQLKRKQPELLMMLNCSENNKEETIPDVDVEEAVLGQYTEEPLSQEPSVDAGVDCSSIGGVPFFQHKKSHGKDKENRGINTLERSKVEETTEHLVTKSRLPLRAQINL
The test can be described thus: Chemoproteomic competition pulldown assay (affinity matrix, LC-MS/MS) in HEK293T lysate. The following applies: over 4000 proteins identified.

The test system of test [2] is LC3/GABARAP. Described as above. The following applies: HEK293T cell lysate. Here is the method: Preparation of Affinity Matrix 10O5 and 8F20: Compounds 18 and 19 (1 µM) were linked to DMSO-washed NHS-activated ( ~ […] beads) sepharose beads (1 mL) and triethylamine (20 µL) in DMSO (2 mL) on an end-over-end shaker overnight at RT in the dark. Aminoethanol (50 µL) was then added to inactivate the remaining NHS-activated carboxylic acid groups. […] Successful immobilization was controlled by LC-MS and Kaiser-test[46].
Preparation of cell lysates for affinity pulldown assays: HEK293 cells (ATCC; CRL-11268) were cultured in DMEM (PAN Biotech). All media were supplemented with 10% FBS (PAN Biotech) and cells were internally tested for Mycoplasma contamination. […] The protein amount of cell lysates was determined by Bradford assay and adjusted to a concentration of 5 mg/mL[46]. […]
LC-MSMS measurement of (competition) pulldown assays: Peptides were analyzed via LC-MS/MS on a Dionex Ultimate3000 nano HPLC coupled to an Orbitrap Fusion Lumos mass spectrometer, operated via the Thermo Scientific Xcalibur software. […]
The mass spectrometer was operated in data dependent mode, automatically switching between MS1 and MS2 spectra. […] Up to 12 peptide precursors were isolated (isolation width of 1.2 Th, maximum injection time of 75 ms, AGC value of 2e5), fragmented by HCD using 25 % […] normalized collision energy (NCE) and analyzed in the Orbitrap at a resolution of 15,000. […]

Test [3] has as its system LC3/GABARAPs (human Atg8 family). Briefly: FP assay with Cy5-labelled p62 LIR tracer, statements on all LC3/GABARAPs.
In test [4] the target is T2, LC3A (Homo sapiens, UniProt Q9H492). The test can be described thus: Isothermal titration calorimetry (ITC). The note with it: replicates 1-3, rebuttal letter. The source says:
To minimize nonspecific dilution heat effects, DMSO concentrations in the protein and compound samples were matched. […] For this protocol, the chamber was pre-equilibrated with the protein, and the test compounds were titrated while continuously measuring the rate of exothermic heat evolution. The heat of binding was integrated, corrected, and fitted to an independent single-binding site model based on the manufacturer’s instructions, from which thermodynamic parameters (ΔH and TΔS), equilibrium association and dissociation constants (KA and KD, respectively), and stoichiometry (n) were calculated using TA Instruments NanoAnalyze software.
In general terms: Isothermal titration calorimetry measures the heat released or taken up as one component is titrated into another.

The target in test [5] is T2, LC3A. The test can be described thus: Isothermal titration calorimetry (ITC). The following applies: rounded, rebuttal letter; Novobiocin in reverse titration.

SMILES strings stand for the structures. “And” between values parts separate entries of the source, which are not always exact repeats. Equal entries are not always repeated.

On to `Cc1ccc(C(=O)N(CCCNC(=O)CCOCCOCCOCCN)[C@@H](c2nc3cc(Cl)ccc3c(=O)n2Cc2ccccc2)C(C)C)cc1` [compound 19, (R)-N-(1-amino-12-oxo-3,6,9-trioxa-13-azahexadecan-16-yl)-N-(1-(3-benzyl-7-chloro-4-oxo-3,4-dihydroquinazolin-2-yl)−2-methylpropyl)−4-methylbenzamide], for which the “additional targets in proteome-wide pulldown” value in test [1] was “No additional targets were detected”. For the same molecule, the “enrichment / pulldown of LC3/GABARAP by affinity matrix” value in test [2] is “did not enrich”.

For the molecule `COc1ccc(/C=C/CCCCOc2ccc(C(=O)c3cccc(C(=O)O)c3)cc2CCC(=O)O)cc1` [compound 20], the “interaction with LC3/GABARAP family members in FP displacement assay” value in test [3] is “selective binding to LC3 family members”. In addition, in test [4] (listed as LY223982), the “Enthalpy (ITC, repeated titration)” value was -11,64 kCal/mol and -9,814 kCal/mol; the “Entropy (ITC, repeated titration)” value was -12,88 Cal/(mol*K) and -16,4 Cal/(mol*K) and -10,29 Cal/(mol*K); the “Stoichiometry, n (ITC, repeated titration)” value is 1,011 and 1,038 and 1,021. Moreover, in test [4] (read-out: KD (ITC, repeated titration)), the Kd was 11.2 µM and 11.4 µM and 10 µM. In addition, the “enthalpies observed in ITC experiments” value in test [5] is given as -7 kcal/mol.
